Legend:
[1] = molecular target: T1, PDE4B catalytic zone (PDE4Bcat) (Homo sapiens, UniProt Q07343); assay: Phosphodiesterase 4 inhibitory activity ([3H]-cAMP, recombinant PDE4Bcat); assay type: biochemical; conditions: 30° C. 20 minutes, read-out: IC50 (μmol/L) PDE4
T1 construct: made in house; host or cells: Sf9 insect cells (baculovirus, Bac-to-Bac / Gateway)

[2] = molecular target: T2, PDE3A catalytic zone (PDE3Acat) (Homo sapiens, UniProt Q14432); assay: Phosphodiesterase 3-inhibitory activity ([3H]-cAMP, recombinant PDE3Acat); assay type: biochemical; conditions: 30° C. 20 minutes, read-out: IC50 value, PDE3
T2 construct: made in house; host or cells: Sf9 insect cells (baculovirus, Bac-to-Bac / Gateway)
T2 sequence (Q14432 674-1093 limits assumed): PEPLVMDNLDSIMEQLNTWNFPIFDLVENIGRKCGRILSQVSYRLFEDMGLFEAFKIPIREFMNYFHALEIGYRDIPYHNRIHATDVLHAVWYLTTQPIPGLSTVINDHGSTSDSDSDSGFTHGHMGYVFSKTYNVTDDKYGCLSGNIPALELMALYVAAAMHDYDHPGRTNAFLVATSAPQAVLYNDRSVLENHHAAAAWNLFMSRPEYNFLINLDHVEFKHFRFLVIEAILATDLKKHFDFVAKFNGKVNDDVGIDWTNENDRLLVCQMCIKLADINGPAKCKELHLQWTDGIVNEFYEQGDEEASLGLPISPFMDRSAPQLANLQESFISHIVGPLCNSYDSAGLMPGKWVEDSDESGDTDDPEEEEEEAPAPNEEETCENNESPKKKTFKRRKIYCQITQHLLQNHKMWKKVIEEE

[3] = test system: LPS-induced pulmonary inflammation (total leukocytes in BALF); assay: LPS-induced pulmonary inflammation in rats; assay type: in vivo; conditions: Leukocyte; rat, 3 mg/kg oral one hour before LPS inhalation, BALF 3 hours after LPS; read-out: rate of inhibition of total number of leukocytes in BALF
Experimental: One hour before the inhalation of lipopolysaccharide from E. coli serotype 055:B5 (LPS), each candidate compound was orally administered to each test rat in a dose of 3 mg/kg, and then the test animal was allowed to inhale an LPS solution (50 mL) over 30 minutes, while the solution was atomized using a nebulizer. After 3 hours from the LPS-inhalation, the rats were euthanized by the administration of a 20% urethane solution (5 ml/rat, i.p.). The bronchial cannula was inserted through the trachea. Broncoalveolar lavage was performed by injecting 5 ml physiological saline, three consecutive times using a 5 mL volume syringe. The operations were repeated twice and these physiological saline samples were recovered as broncoalveolar lavage fluid (BALF). Each of the BALF thus recovered was centrifuged at 1200 rpm and 4° C. for 10 minutes (Hirtachi; himac […]), the resulting residue was again suspended in 10 mL of 0.1% bovine serum albumin-containing physiological saline, an equivalent volume of Turk's diluting fluid was added to the suspension to thus stain the leukocytes present therein and the total number of leukocytes was determined under the microscopic observation to thus calculate the rate of inhibition.

T1 sequence (Q07343 330-659 limits assumed): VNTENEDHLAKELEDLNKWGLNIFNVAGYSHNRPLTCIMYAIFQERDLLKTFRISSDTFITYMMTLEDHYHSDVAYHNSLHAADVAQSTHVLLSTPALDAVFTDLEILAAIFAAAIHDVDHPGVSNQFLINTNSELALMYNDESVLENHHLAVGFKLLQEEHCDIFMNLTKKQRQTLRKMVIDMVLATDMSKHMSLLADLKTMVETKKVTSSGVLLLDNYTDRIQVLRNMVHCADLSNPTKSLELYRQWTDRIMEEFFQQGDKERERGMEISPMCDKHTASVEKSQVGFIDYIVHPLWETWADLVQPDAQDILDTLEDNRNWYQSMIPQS

Row | Compound | IC50 [1] [µmol/L] | IC50 [2] [nM] | inhibition in vivo at 3 mg/kg [3] [%]
1 | COc1ccc(-c2ccc3c(c2)CCNC3=O)c2cc(C(F)(F)F)nn12 [Example 58, 6-(7-Methoxy-2-trifluoromethylpyrazolo[1,5-a]pyridin-4-yl)-3,4-dihydroisoquinolin-1(2H)-one] | 0.01 to 0.1 | > 1000 | ≥ 60
2 | COc1ccc(-c2ccc3c(c2)CNC3=O)c2cc(C(F)(F)F)nn12 [Example 59, 5-(7-Methoxy-2-trifluoromethylpyrazolo[1,5-a]pyridin-4-yl)isoindolin-1-one] | 0.01 to 0.1 | > 1000 | ≥ 60
3 | COc1ccc(-c2ccc3c(=O)[nH]cc(Cl)c3c2)c2cc(C(F)(F)F)nn12 [Example 60, 4-Chloro-6-(7-methoxy-2-trifluoromethylpyrazolo[1,5-a]pyridin-4-yl)isoquinolin-1(2H)-one] | < 0.01 | > 1000 | ≥ 60
4 | COc1ccc(-c2ccc3c(c2)CCNC3=O)c2c(Cl)c(C(F)(F)F)nn12 [Example 62, 6-(3-Chloro-7-methoxy-2-trifluoromethylpyrazolo[1,5-a]pyridin-4-yl)-3,4-dihydroisoquinolin-1(2H)-one] | < 0.01 | – | ≥ 60
5 | CNc1ccc(-c2ccc3c(c2)CCNC3=O)c2cc(C(F)(F)F)nn12 [Example 63, 6-(7-Methylamino-2-trifluoromethylpyrazolo[1,5-a]pyridin-4-yl)-3,4-dihydroisoquinolin-1(2H)-one] | < 0.01 | > 1000 | ≥ 60
6 | CNc1ccc(-c2ccc3[nH]c(=O)ccc3c2)c2cc(C(F)(F)F)nn12 [Example 64, 6-(7-Methylamino-2-trifluoromethylpyrazolo[1,5-a]pyridin-4-yl)quinolin-2(1H)-one] | < 0.01 | > 1000 | ≥ 60
7 | COc1ccc(-c2ccc3[nH]c(=O)ccc3c2)n2c(Cl)c(C(F)(F)F)nc12 [Example 89, 6-(3-Chloro-8-methoxy-2-(trifluoromethyl)imidazo[1,2-a]pyridin-5-yl)quinolin-2(1H)-one] | < 0.01 | > 1000 | ≥ 60
8 | COc1ccc(-c2ccc3c(c2)CCC(=O)N3C)c2cc(C(F)(F)F)nn12 [Example 102, 6-(7-Methoxy-2-trifluoromethylpyrazolo[1,5-a]pyridin-4-yl)-1-methyl-3,4-dihydroquinolin-2(1H)-one] | 0.01 to 0.1 | > 1000 | ≥ 60
9 | COc1ccc(-c2ccc3c(ccc(=O)n3C)c2)c2c(Cl)c(C(F)(F)F)nn12 [Example 115, 6-(3-Chloro-7-methoxy-2-trifluoromethylpyrazolo[1,5-a]pyridin-4-yl)-1-methylquinolin-2(1H)-one] | < 0.01 | > 1000 | ≥ 60
10 | COc1ccc(-c2ccc3c(c2)CCNC3=O)c2cc(C3CC3)nn12 [Example 121, 6-(2-Cyclopropyl-7-methoxypyrazolo[1,5-a]pyridin-4-yl)-3,4-dihydroisoquinolin-1(2H)-one] | 0.01 to 0.1 | > 1000 | ≥ 60
11 | CNc1ccc(-c2ccc3[nH]c(=O)ccc3c2)n2c(Cl)c(C(F)(F)F)nc12 [Example 142, 6-(3-Chloro-8-methylamino-2-trifluoromethylimidazo[1,2-a]pyridin-5-yl)quinolin-2(1H)-one] | < 0.01 | > 1000 | ≥ 60
12 | CNc1ccc(-c2ccc3c(c2)CCNC3=O)n2c(Cl)c(C(F)(F)F)nc12 [Example 143, 6-(3-Chloro-8-methylamino-2-trifluoromethylimidazo[1,2-a]pyridin-5-yl)-3,4-dihydroisoquinolin-1(2H)-one] | < 0.01 | > 1000 | ≥ 60
13 | CNc1ccc(-c2ccc3c(=O)[nH]cc(Cl)c3c2)n2c(Cl)c(C(F)(F)F)nc12 [Example 145, 4-Chloro-6-(3-chloro-8-(methylamino)-2-trifluoromethylimidazo[1,2-a]pyridin-5-yl)isoquinolin-1(2H)-one] | < 0.01 | – | –
14 | Nc1ccc(-c2ccc3c(=O)[nH]cc(Cl)c3c2)n2cc(C(F)(F)F)nc12 [Example 146, 6-(8-Amino-2-trifluoromethylimidazo[1,2-a]pyridin-5-yl)-4-chloro-isoquinolin-1(2H)-one] | 0.01 to 0.1 | – | –
